Test results from patent US20220257722A1, “COMPOSITIONS AND METHODS OF TREATING AND PREVENTING SYSTEMIC COMPLICATIONS OF ACUTE ILLNESS” (United States Government As Represented By The Department …, priority 2019, published 2022).

Tested on: rat small intestine
Assay: In vivo small intestinal perfusion: FITC-LPS transport into portal vein and mesenteric lymph during OA/TCA exposure
Conditions: for TDG-related augmentation of FITC-LPS transport into the lymph: L-NAME 0.1 mM perfused or PG97-269 0.3 mg/kg iv before TDG; for inhibitory effect of TDG on FITC-LPS transport into the PV: L-NAME 0.1 mM perfused or PG97-269 0.3 mg/kg iv before TDG 50 μg/kg iv; for AUC0-90 of lymph FITC-LPS compared with the +TDG group / TDG-induced reduction of AUC0-90 PV FITC-LPS / lymph output in TDG-treated rats: L-NAME or PG97-269 before TDG; for AUC0-90 of PV FITC-LPS / AUC0-90 of lymph FITC-LPS: OA/TCA-augmented, 0-90 min; for OA/TCA-induced FITC-LPS transport into the PV: intraduodenal FITC-LPS 50 μg/ml + OA 30 mM/TCA 10 mM, anesthetized rats; for FITC-LPS transport into the lymph: intraduodenal FITC-LPS + OA/TCA
Experimental: In vivo small intestinal perfusion. Intraduodenal perfusions combined with PV and mesenteric lymph cannulation were carried out (1, 48). Under isoflurane anesthesia (2%), the animal was placed supine on a recirculating heating block system (Summit Medical Systems, Bend, Oreg., USA) in order to maintain body temperature at 36-37° C. Prewarmed saline was infused via the right femoral vein at 1.08 ml/h using a Harvard infusion pump (Harvard Apparatus, Holliston, Mass., USA). The abdomen was incised, and the PV was cannulated with a polyethylene (PE)-50 tube attached with 23G needle and fixed by methylacrylate adhesive at the insertion site. The tube was filled with heparinized saline enabling repeated blood sampling. PV samples (0.2 ml each) were collected every 15 min, followed by 0.2 ml flushes with heparinized saline. […] The lymph solution was continuously collected into a 1.5-ml tube every 15 min. A polyethylene tube (diameter 5 mm) filled with PBS was inserted through the forestomach and tied at 0.5 cm caudal from the pyloric ring. After bolus perfusion of 2 ml PBS into the duodenum from the tube, followed by stabilization for ˜30 min, the time was set as t=0 min. FITC-LPS (50 μg/ml) in 2-ml PBS with or without OA (30 mM) and TCA (10 mM) was bolus perfused at t=0 min. In order to maintain lymph flow, 2-ml PBS was perfused every 30 min. PV and lymph samples were collected every 15 min for 90 min. Blood samples were collected in a 0.5-ml tube containing 1 μl each of EDTA (0.5 M), and immediately centrifuged at 5,000 × g for 5 min, after which the plasma was stored at −80° C. until use. The lymph solution was weighed to measure its volume and centrifuged, with the supernatant stored at −80° C. until use. At 90 min, after collection of PV and lymph samples, arterial blood was taken from abdominal aorta for a reference sample, followed by euthanasia by thoracotomy.
The appearance of FITC-LPS into the PV plasma and lymph was assessed by fluorescence measurement using Synergy-2. Fluorescence intensity in the t=0 sample as background was subtracted from the fluorescence values measured in other time point samples. For lymph samples, the FITC-LPS concentration was multiplied by the lymph output in order to calculate total FITC-LPS appearance. FITC-LPS appearance was expressed as PV FITC-LPS content (ng/ml) or FITC-LPS transport into lymph (ng/15 min). Furthermore, total FITC-LPS transport into the PV and lymph was assessed by calculating the area under the curve (AUC) during 0-90 min of FITC-LPS appearance (AUC0-90) using the trapezoidal rule and expressed as AUC0-90 of PV FITC-LPS (μg·min/ml) and AUC0-90 of lymph FITC-LPS (μg).
Intestinal perfusion study: drug treatment. The lipid raft inhibitor MβCD (1 mM), the CD36 inhibitor SSO (1 mM), and PL81 (3%) were added to the initial perfusion of 2-ml PBS at t=−30 min, followed by their addition to the luminal FITC-LPS/OA/TCA solution at t=0 min.
Effect of TDG on intestinal LPS transport. The stable, DPP4-resistant analog of GLP-2, TDG (13) was used to examine the acute effect of GLP-2 on LPS transport into PV and mesenteric lymph in vivo. TDG (50 μg/kg) was bolus injected iv 15 min before the luminal FITC-LPS/OA/TCA perfusion (at t=−15 min). L-NAME was added to the first perfusion of 2 ml PBS (at t=−30 min). PG97-269 (0.3 mg/kg) was bolus injected iv 20 min before the luminal FITC-LPS/OA/TCA perfusion (at t=−20 min).

Molecule	TDG-related augmentation of FITC-LPS transport into the lymph	inhibitory effect of TDG on FITC-LPS transport into the PV	AUC0-90 of lymph FITC-LPS compared with the +TDG group	TDG-induced reduction of AUC0-90 PV FITC-LPS	lymph output in TDG-treated rats	AUC0-90 of PV FITC-LPS	AUC0-90 of lymph FITC-LPS	OA/TCA-induced FITC-LPS transport into the PV	FITC-LPS transport into the lymph	lymphatic output (t=0-30 min, TDG 50 μg/kg iv at t=-15 min vs non-pretreated controls)
COC(=O)[C@@H](N)CCCNC(=N)N[N+](=O)[O-] [L-NAME, Nω-nitro-L-arginine methyl ester]	inhibited	reduced	reduced	reversed	reduced					
CCCCCCCC/C=C\CCCCCCCC(=O)ON1C(=O)CC(S(=O)(=O)O)C1=O (centres unmarked) [SSO, sulfosuccinimidyl oleate]						failed to affect	no effect	inhibited	no effect	
CC[C@H](C)[C@H](NC(=O)[C@H](Cc1ccccc1)NC(=O)[C@H](CC(=O)O)NC(=O)[C@H](CCCNC(=N)N)NC(=O)[C@H](C)NC(=O)[C@H](C)NC(=O)[C@H](CC(C)C)NC(=O)[C@H](CC(N)=O)NC(=O)[C@H](CC(=O)O)NC(=O)[C@H](CC(C)C)NC(=O)[C@@H](NC(=O)[C@@H](NC(=O)[C@H](CC(N)=O)NC(=O)[C@H](CCSC)NC(=O)[C@H](CCC(=O)O)NC(=O)[C@H](CC(=O)O)NC(=O)[C@H](CO)NC(=O)[C@H](Cc1ccccc1)NC(=O)[C@H](CO)NC(=O)CNC(=O)[C@H](CC(=O)O)NC(=O)CNC(=O)[C@@H](N)Cc1c[nH]cn1)[C@@H](C)O)[C@@H](C)CC)C(=O)N[C@@H](CC(N)=O)C(=O)N[C@@H](Cc1c[nH]c2ccccc12)C(=O)N[C@@H](CC(C)C)C(=O)N[C@H](C(=O)N[C@@H](CCC(N)=O)C(=O)N[C@H](C(=O)N[C@@H](CCCCN)C(=O)N[C@H](C(=O)N[C@H](C(=O)N[C@@H](CC(=O)O)C(=O)O)[C@@H](C)O)[C@@H](C)CC)[C@@H](C)O)[C@@H](C)CC [TDG]						reduced	no significant effect	abolished	rapidly increased	rapid increase
[Ac-His^1, D-Phe^2, Lys^15, Arg^16, Leu^27]-VIP(1-7)-GRF(8-27) (HFDAVFTNSYRKVLKRLSARKLLQDIL; HELM PEPTIDE1{[ac].H.[dF].D.A.V.F.T.N.S.Y.R.K.V.L.K.R.L.S.A.R.K.L.L.Q.D.I.L.[am]}$$$$V2.0; SMILES CC[C@H](C)[C@H](NC(=O)[C@H](CC(=O)O)NC(=O)[C@H](CCC(N)=O)NC(=O)[C@H](CC(C)C)NC(=O)[C@H](CC(C)C)NC(=O)[C@H](CCCCN)NC(=O)[C@H](CCCNC(=N)N)NC(=O)[C@H](C)NC(=O)[C@H](CO)NC(=O)[C@H](CC(C)C)NC(=O)[C@H](CCCNC(=N)N)NC(=O)[C@H](CCCCN)NC(=O)[C@H](CC(C)C)NC(=O)[C@@H](NC(=O)[C@H](CCCCN)NC(=O)[C@H](CCCNC(=N)N)NC(=O)[C@H](Cc1ccc(O)cc1)NC(=O)[C@H](CO)NC(=O)[C@H](CC(N)=O)NC(=O)[C@@H](NC(=O)[C@H](Cc1ccccc1)NC(=O)[C@@H](NC(=O)[C@H](C)NC(=O)[C@H](CC(=O)O)NC(=O)[C@@H](Cc1ccccc1)NC(=O)[C@H](Cc1c[nH]cn1)NC(C)=O)C(C)C)[C@@H](C)O)C(C)C)C(=O)N[C@@H](CC(C)C)C(N)=O) [PG97-269]	inhibited	no effect	reduced	no effect	reduced					
methyl-β-cyclodextrin [MβCD]						abolished	no effect	abolished	no effect	
